Experimental data: US5034402A, “Methods and pharmaceutical compositions using pyrrolidine derivatives” (Hoffmann-La Roche Inc., priority 1981, dated 1991)

Assays:
[1] = acute toxicity, single oral administration to mice; details: mouse, in vivo
Text: Moreover, the Table contains data concerning the acute toxicity (LD50 in mg/kg in the case of single oral administration to mice).

[2] = tested on: short-time memory; test: passive avoidance response in the Skinner box; reversal of scopolamine-induced blocking of short-time memory; format: in vivo, rats
Text: The test apparatus is a "Skinner box" with an electrifiable grid floor (30×40 cm) and a grey plastic platform (15×15×0.8 cm) in the front right corner. Untrained male rats (100-120 g) are placed individually on the platform. As soon as they climb down on to the grid floor they receive an electric foot-shock (0.8 mA). The normal reaction of untrained rats is thereupon to jump back on to the platform. Since, however, the rats still attempt to climb down again, the foot-shock procedure must be repeated three to five times for each animal. After these three to five repetitions per animal, the rats have learned a so-called "passive avoidance response", that is, they no longer attempt to descend to the grid floor, since they know that they are punished when they do so.
Immediately thereafter three groups each comprising 30 animals are set up. The first group receives an injection (i.p.) of 0.3 mg/kg of scopolamine as well as distilled water (2 ml/kg, p.o.). The second group receives an injection (i.p.) of 0.3 mg/kg of scopolamine and an oral dosage of the test substance. The third group receives only distilled water (p.o).
Two (2) hours later each rat is placed once on the platform in the "Skinner box". […] The statistical significance of the difference between the results obtained in the first and in the second groups is determined by means of the Chi-Square Test. […]

SMILES | LD50 [1] [mg/kg] | animals with retrograde effect on the short-time memory ([2]; scopolamine 0.3 mg/kg i.p. and distilled water p.o., during 3-4 hours) | Significant active dosage ([2]; oral dosage significantly active against scopolamine (0.3 mg/kg i.p.), assessed 2 hours later, Chi-Square Test, each listed dosage was active) [mg/kg p.o.]
NC(=O)CN1CCC(O)C1=O (racemic) [Compound D, (R/S)-2-(3-hydroxy-2-oxo-1-pyrrolidinyl)acetamide] | > 5000 |  | 
CN1[C@@H]2C[C@@H](OC(=O)[C@H](CO)c3ccccc3)C[C@H]1[C@@H]1O[C@@H]12 [scopolamine, reference compound] |  | 85-92% | 
C[C@@H]1CCC[C@H](C)N1CCNC(=O)CN1CCC(O)C1=O (mixture of isomers) [Compound A, (R/S)-cis-N-[2-(2,6-dimethyl-1-piperidinyl)ethyl]-2-(3-hydroxy-2-oxo-1-pyrrolidinyl)acetamide] | > 5000 |  | 
NC(=O)CN1CC[C@H](O)C1=O [Compound B, (S)-(-)-2-(3-hydroxy-2-oxo-1-pyrrolidinyl)acetamide] | > 5000 |  | 
CC(C)N(CCNC(=O)CN1CCC(O)C1=O)C(C)C (racemic) [Compound E, (R/S)-N-[2-(diisopropylamino)ethyl]-2-(3-hydroxy-2-oxo-1-pyrrolidinyl)-acetamide] | > 5000 |  | 3
NC(=O)CN1CC[C@@H](O)C1=O [Compound C, (R)-(+)-2-(3-hydroxy-2-oxo-1-pyrrolidinyl)acetamide] | > 5000 |  | 
